{
  "source": "patent US7064190B1",
  "about": "“Antigen-specific, activated T lymphocytes, detection and use” (Roche Diagnostics GmbH, priority 1994, dated 2006)",
  "type_in_all_cases": "cell-based, human",
  "key": {"[1]": {"system": "T cell line 6/10", "experiment": "Proliferation test with variants of the peptide 5G1 using the T cell line 6/10", "settings": "for Stimulation index: TCL 6/10, variants of peptide 5G1", "experimental": "In order to elucidate the core structure of the stimulating peptide 5G1, proliferation tests were carried out with various variants of this peptide using the T cell line 6/10 (see Table 4).\nA test with a first series of 20 mer variants is intended to ascertain whether amino acids which border on the 5G1 structure at the C- or N-terminus play a role in the recognition by the T cell line 6/10. […] A 6 amino acid shift towards the N-terminus leads to a loss in stimulation capacity.\nA test with a second series of peptide variants examines the influence of a shortening at the C-terminus.\nThe object of a test with a third series of peptide variants was to define the N-terminus of the minimum stimulation-active peptide. If the amino acids leucine (L) and proline (P) are removed from a 18 mer with an intact C-terminus, this leads to a strong decrease of the stimulation index. The N-terminus is thus defined by L and P. If the […] is shortened further by H and F this also leads to a loss of stimulation activity."}, "[2]": {"system": "T cell line 6/7", "experiment": "T cell proliferation with peptides using PBLs of various haplotypes as antigen-presenting cells, TCL 6/7", "settings": "for SI (stimulation index): TCL 6/7", "experimental": "(§1) The experimental procedure is analogous to example 1.3. […] The proliferation tests were carried out using the autoantigenic peptides 5G1 (corresponding to amino acids 266–285 of human GAD65) and 5F3 (corresponding to amino acids 306–325 of human GAD65).\n(§2) T cell proliferation after stimulation with the peptides 5G1 and 5F3 using PBLs with various haplotypes as antigen-presenting cells"}, "[3]": {"system": "T cell line 6/10", "experiment": "Proliferation test with peptides derived from the H-GAD sequence, T cell line 6/10", "settings": "10 μg/ml individual peptides from pools 7 and 11, FIG. 6", "experimental": "(§3) Autologous PBLs or PBLs of a normal donor which are identical with regard to the HLA class II antigens are used as stimulator cells. The PBLs are pre-incubated with antigen as described in paragraph 2, irradiated with 4000 rad and distributed in 96 well plates (100 000 cells/well).\n(§4) After 3–4 days at 37° C./7% CO2, 1 μCi ^3H-thymidine is added and incubated for a further 16–20 hours. Afterwards the cells are transferred onto a glass fibre filter by means of a cell harvester instrument and the incorporated radioactivity is determined in a β counter.\n(§5) T cell lines that had been expanded by means of at least 4 restimulation cycles and which reacted with SW-GAD in the proliferation test were additionally tested with overlapping peptides of H-GAD. The object of these experiments is to define the epitopes of H-GAD that are recognized by the T cells. For this, overlapping 20 mer peptides of H-GAD are firstly synthesized (overlapping region 10 amino acids, total of 59 different peptides).\n(§6) […] The further treatment of these stimulator cells is carried out as described in section 3a.\n(§7) Subsequently 6000–20,000 T cells are added per microculture well. The further procedure is analogous to that described in section 3b."}, "[4]": {"system": "T cell line 6/10", "experiment": "T cell proliferation with peptides using PBLs of various haplotypes as antigen-presenting cells, TCL 6/10", "settings": "for proliferation in the presence of the DR B1 allele 0401: T cell line 6/10; for SI (stimulation index): TCL 6/10", "experimental": "as §1, §2"}, "[5]": {"system": "T cell line 6/7", "experiment": "Proliferation test with peptides derived from the H-GAD sequence, T cell line 6/7", "settings": "10 μg/ml individual peptides from pools 7 and 11, FIG. 5", "experimental": "as §3, §4, §5, §6, §7"}, "[6]": {"system": "T cell line 6/10", "experiment": "Proliferation test with SW-GAD, T cell line 6/10", "settings": "stimulator PBLs pulsed with SW-GAD", "experimental": "(§8) The first restimulation is carried out on the 14th day after the beginning of the primary stimulation. For this, in comparison to the primary stimulation, double the number of autologous PBLs is isolated by means of Ficoll and adjusted in culture medium to a cell concentration of 2×10^6/ml. One half of these stimulator cells is incubated for 2 hours/37° C./7% CO2 with the antigen SW-GAD (final concentration 5 μg/ml) (antigen pulse). The other half is incubated under the same conditions without antigen and only with culture medium. Subsequently all stimulator cells are irradiated with 4000 rad. The stimulator cells are then distributed (100 000 cells/well) in 96 well round-bottom plates in such a way that a well with stimulator cells containing antigen is always adjacent to a well with stimulator cells without antigen.\n(§9) All tests are carried out in at least duplicate preparations.\n(§10) Autologous PBLs or PBLs of a normal donor which are identical with regard to the HLA class II antigens are used as stimulator cells. […]\nas §4"}, "[7]": {"system": "T cell line 6/7", "experiment": "Proliferation test with SW-GAD, T cell line 6/7", "settings": "stimulator PBLs pulsed with SW-GAD", "experimental": "as §8, §9, §10, §4"}, "[8]": {"settings": "APC donor four (DR B1 0301/0401)"}, "[9]": {"settings": "APC donor one (DR B1 1302/0401)"}, "[10]": {"settings": "APC donor three (DR B1 0301/0404)"}, "[11]": {"settings": "APC donor two (DR B1 0101/1601)"}},
  "data": [
    {"molecule": "GMAALPRLIAFT [SEQ ID NO:14]", "values": [
      {"measurement": "Stimulation index", "setting": "[1]", "value": 1.0}
    ]},
    {"molecule": "PEVKEKGMAALPRLIAFTSE [SEQ ID NO:8]", "values": [
      {"measurement": "Stimulation index", "setting": "[1]", "value": 0.6}
    ]},
    {"molecule": "RLIAFTSEHSHFSL [SEQ ID NO:16]", "values": [
      {"measurement": "Stimulation index", "setting": "[1]", "value": 1.4}
    ]},
    {"molecule": "ERGKMIPSDLERRILEAKQK (ERGKMIPSDLERRILEAKQK) [5F3, corresponding to amino acids 306–325 of human GAD 65]", "values": [
      {"measurement": "proliferation in the presence of the DR B1 allele 0401", "setting": "[2]; T cell line 6/7", "value": "proliferation in the presence of the DR B1 allele 0401 is found"},
      {"measurement": "SI (stimulation index)", "setting": "[2]; APC donor 19 (DR B1 0301/0401)", "value": 3.1},
      {"measurement": "SI (stimulation index)", "setting": "[2]; [8]", "value": 3.8},
      {"measurement": "SI (stimulation index)", "setting": "[2]; [9]", "value": 7.0},
      {"measurement": "SI (stimulation index)", "setting": "[2]; [10]", "value": 0.6},
      {"measurement": "SI (stimulation index)", "setting": "[2]; [11]", "value": 1.2},
      {"measurement": "proliferation with individual peptides", "setting": "[3]", "value": "smaller but significant proliferation"},
      {"measurement": "proliferation in the presence of the DR B1 allele 0401", "setting": "[4]", "value": "proliferates"},
      {"measurement": "SI (stimulation index)", "setting": "[4]; APC donor 19 (DR B1 0301/0401)", "value": 2.8},
      {"measurement": "SI (stimulation index)", "setting": "[4]; [8]", "value": 3.8},
      {"measurement": "SI (stimulation index)", "setting": "[4]; [9]", "value": 6.5},
      {"measurement": "SI (stimulation index)", "setting": "[4]; [10]", "value": 1.5},
      {"measurement": "SI (stimulation index)", "setting": "[4]; [11]", "value": 1.4},
      {"measurement": "proliferation with individual peptides", "setting": "[5]", "value": "smaller but significant proliferation"}
    ]},
    {"molecule": "AALPRLIAFTSEHSHF [SEQ ID NO:10]", "values": [
      {"measurement": "Stimulation index", "setting": "[1]", "value": 2.9}
    ]},
    {"molecule": "LPRLIAFTSEHS [SEQ ID NO:18]", "values": [
      {"measurement": "Stimulation index", "setting": "[1]", "value": 0.4}
    ]},
    {"molecule": "LPRLIAFTSEHSHF [SEQ ID NO:17]", "values": [
      {"measurement": "stimulation capacity of 5G1 variants", "setting": "[1]; T cell line 6/10", "value": "minimum peptide that can still stimulate"},
      {"measurement": "Stimulation index", "setting": "[1]", "value": 4.6}
    ]},
    {"molecule": "RLIAFTSEHSHFSLKKGAAA [SEQ ID NO:7]", "values": [
      {"measurement": "Stimulation index", "setting": "[1]", "value": 3.2}
    ]},
    {"molecule": "GMAALPRLIAFTSEHSHFSL [5G1, corresponding to amino acids 266–285 of human GAD 65]", "values": [
      {"measurement": "recognition in association with the alleles DR B1 0101 or/and 1601", "setting": "[2]; T cell line 6/7", "value": "recognizes"},
      {"measurement": "SI (stimulation index)", "setting": "[2]; APC donor 19 (DR B1 0301/0401)", "value": 45.7},
      {"measurement": "SI (stimulation index)", "setting": "[2]; [8]", "value": 55.0},
      {"measurement": "SI (stimulation index)", "setting": "[2]; [9]", "value": 67.8},
      {"measurement": "SI (stimulation index)", "setting": "[2]; [10]", "value": 0.9},
      {"measurement": "SI (stimulation index)", "setting": "[2]; [11]", "value": 28.6},
      {"measurement": "proliferation with individual peptides", "setting": "[3]", "value": "significant proliferation"},
      {"measurement": "Stimulation index", "setting": "[1]", "value": 5.4},
      {"measurement": "SI (stimulation index)", "setting": "[4]; APC donor 19 (DR B1 0301/0401)", "value": 8.5},
      {"measurement": "SI (stimulation index)", "setting": "[4]; [8]", "value": 6.0},
      {"measurement": "SI (stimulation index)", "setting": "[4]; [9]", "value": 22.6},
      {"measurement": "SI (stimulation index)", "setting": "[4]; [10]", "value": 1.5},
      {"measurement": "SI (stimulation index)", "setting": "[4]; [11]", "value": 2.2},
      {"measurement": "proliferation with individual peptides", "setting": "[5]", "value": "significant proliferation"}
    ]},
    {"molecule": "AALPRLIAFTSE [SEQ ID NO:12]", "values": [
      {"measurement": "Stimulation index", "setting": "[1]", "value": 0.6}
    ]},
    {"molecule": "GMAALPRLIAFTSEHSHFSLKKGAA (GMAALPRLIAFTSEHSHFSLKKGAA) [amino acid sequence (I), amino acid residues 266–290 of the human GAD 65]", "values": [
      {"measurement": "proliferation in the presence of the DR B1 allele 0401 and 0101 or/and 1601", "setting": "[2]; T cell line 6/7", "value": "proliferates"},
      {"measurement": "proliferation in the presence of the DR B1 allele 0401", "setting": "[4]", "value": "proliferates"}
    ]},
    {"molecule": "AALPRLIAFTSEHSHFSL [SEQ ID NO:9]", "values": [
      {"measurement": "Stimulation index", "setting": "[1]", "value": 4.5}
    ]},
    {"molecule": "GMAALPRLIAFTSE [SEQ ID NO:13]", "values": [
      {"measurement": "Stimulation index", "setting": "[1]", "value": 0.8}
    ]},
    {"molecule": "AALPRLIAFTSEHS [SEQ ID NO:11]", "values": [
      {"measurement": "Stimulation index", "setting": "[1]", "value": 0.7}
    ]},
    {"molecule": "LPRLIAFTSEHSHFSLKK [SEQ ID NO:15]", "values": [
      {"measurement": "Stimulation index", "setting": "[1]", "value": 3.2}
    ]},
    {"molecule": "ALPRLIAFTSEHSHFSLKKG [SEQ ID NO:6]", "values": [
      {"measurement": "Stimulation index", "setting": "[1]", "value": 3.0}
    ]},
    {"molecule": "SW-GAD: porcine GAD (glutamic acid decarboxylase from pig brain) used as antigen (protein) MASSTPSSSATSSNAGPDPNTTNLRPTTYDTWCGVAHGCTRKLGLKICGFLQRTNSLEEKSRLVSAFKERQSSKNLLSCENSDRDGRFRRTETDFSNLFARDLLPAKNGEEQTVQFLLEVVDILLNYVRKTFDRSTKVLDFHHPHQLLEGMEGFNLELSDHPESLEQILVDCRDTLKYGVRTGHPRFFNQLSTGLDIIGLAGEWLTSTANTNMFTYEIAPVFVLMEQITLKKMREIVGWSNKDGDGIFSPGGAISNMYSIMAARYKYFPEVKTKGMAAVPKLVLFTSEHSHYSIKKAGAALGFGTDNVILIKCNERGKIIPADLEAKILEAKQKGYIPLYVNATAGTTVYGAFDPIQEIADICEKYNLWLHVDAAWGGGLLMSRKHRHKLSGIERADSVTWNPHKMMGVLLQCSAILVKEKGILQGCNQMCAGYLFQPDKQYDVSYDTGDKAIQCGRHVDIFKFWLMWKAKGTVGFENQINKCLELAEYLYAKIKNREEFEMVFDGEPEHTNVCFWYIPQSLRGVPDSPERREKLHRVAPKIKALMMESGTTMVGYQPQGDKANFFRMVISNPAATQSDIDFLIEEIERLGQDL", "values": [
      {"measurement": "cpm SW-GAD (3H-thymidine incorporation)", "setting": "[6]", "value": 5222, "unit": "cpm"},
      {"measurement": "cpm SW-GAD (3H-thymidine incorporation)", "setting": "[7]", "value": 9373, "unit": "cpm"}
    ]}
  ]
}
